Data published in ChEMBL document CHEMBL1148889, “Biaryl cannabinoid mimetics--synthesis and structure-activity relationship” (Bioorg Med Chem Lett, 2007).
“And” between values parts separate entries of the source, which are not always exact repeats. Equal entries are not always repeated.

Experiments:
[1] = target: Cannabinoid receptor 1 (Homo sapiens, UniProt P21554); experiment: Displacement of [3H]CP-55940 from cloned human CB1 receptor
[2] = target: Cannabinoid receptor 2 (Homo sapiens, UniProt P34972); experiment: Displacement of [3H]CP-55940 from cloned human CB2 receptor
[3] = target: Cannabinoid receptor (Homo sapiens) (UniProt P34972+P21554); experiment: Selectivity for human CB2 receptor over human CB1 receptor; format: protein assay
Cannabinoid receptor (Homo sapiens), sequence (P21554 whole entry, looked up): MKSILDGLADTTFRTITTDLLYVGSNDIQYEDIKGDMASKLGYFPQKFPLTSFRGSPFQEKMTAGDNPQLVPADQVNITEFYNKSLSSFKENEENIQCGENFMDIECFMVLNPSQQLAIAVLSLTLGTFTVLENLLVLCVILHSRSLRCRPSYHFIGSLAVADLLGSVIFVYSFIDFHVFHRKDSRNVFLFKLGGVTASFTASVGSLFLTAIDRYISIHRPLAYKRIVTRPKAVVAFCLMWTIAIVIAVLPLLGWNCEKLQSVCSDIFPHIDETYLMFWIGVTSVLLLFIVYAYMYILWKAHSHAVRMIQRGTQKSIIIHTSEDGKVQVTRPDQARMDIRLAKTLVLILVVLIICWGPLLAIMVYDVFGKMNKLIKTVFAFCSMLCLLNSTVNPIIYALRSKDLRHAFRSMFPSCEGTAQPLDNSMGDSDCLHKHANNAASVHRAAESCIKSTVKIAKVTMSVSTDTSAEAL
Cannabinoid receptor (Homo sapiens), sequence (P34972 whole entry, looked up): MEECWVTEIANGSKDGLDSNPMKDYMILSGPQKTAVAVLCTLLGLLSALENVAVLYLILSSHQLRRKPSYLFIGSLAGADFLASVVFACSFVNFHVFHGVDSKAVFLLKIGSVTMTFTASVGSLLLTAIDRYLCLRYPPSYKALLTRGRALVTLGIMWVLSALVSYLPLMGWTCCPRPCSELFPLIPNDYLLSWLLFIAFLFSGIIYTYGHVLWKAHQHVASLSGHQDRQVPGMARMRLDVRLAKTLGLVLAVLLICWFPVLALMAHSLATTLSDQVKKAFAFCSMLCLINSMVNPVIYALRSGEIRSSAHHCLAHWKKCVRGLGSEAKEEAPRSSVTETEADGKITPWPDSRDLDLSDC

Cannabinoid receptor 2, sequence (P34972 whole entry): as the sequence (P34972 whole entry, looked up) above
Cannabinoid receptor 1, sequence (P21554 whole entry): as the sequence (P21554 whole entry, looked up) above

Compound `CCCCCCC(C)(C)c1ccc(-c2ccc(N)cc2)c(O)c1` has a Ki [1] of 320 nM, a Ki [2] of 1000 nM and a Ratio Ki [3] of 0.3.

With `CCCCCCC(C)(C)c1ccc(-c2cc(C)cc(C)c2)c(C(=O)O)c1` the Ki [1] was > 1000 nM and the Ki [2] was > 1000 nM.

With `CCCCCCC(C)(C)c1ccc(-c2ccc(C#N)cc2)c(O)c1` the Ki [1] was > 1000 nM and the Ki [2] was > 1000 nM.

For `CCCCCCC(C)(C)c1ccc(-c2cccc(C(=O)O)c2)c(O)c1`, the Ki [1] was > 1000 nM and the Ki [2] was > 1000 nM.

`Cc1cc(C)cc(-c2ccc(C(C)(C)CCCCC(=O)O)cc2O)c1` was tested, and the Ki [1] was > 1000 nM and the Ki [2] was > 1000 nM.

For `Cc1cc(C)cc(-c2ccc(C(C)(C)C(=O)O)cc2O)c1`, the Ki [1] was > 1000 nM and the Ki [2] was > 1000 nM.

In the case of `CCCCCCC(C)(C)c1ccc(-c2cc(C)cc(C)c2)c(N)c1`, the Ki [1] is reported as 80 nM, the Ki [2] is reported as 51 nM and the Ratio Ki [3] is reported as 2.

For `CNC(=O)CCCCC(C)(C)c1ccc(-c2cc(C)cc(C)c2)c(O)c1`, the Ki [1] was 96 nM, the Ki [2] was 39 nM and the Ratio Ki [3] was 2.

`CCCCCCC(C)(C)c1ccc(-c2cccnc2)c(O)c1` gave a Ki [1] of 23 nM, a Ki [2] of 20 nM and a Ratio Ki [3] of 1.

`CCCCCCC(C)(C)c1ccc(-c2cccc(N)c2)c(O)c1` gave a Ki [1] of 15 nM, a Ki [2] of 44 nM and a Ratio Ki [3] of 0.3.

For `CCCCCCC(C)(C)c1ccc(-c2cccc(OC)c2OC)c(O)c1`, the Ki [1] was 34 nM, the Ki [2] was 7.8 nM and the Ratio Ki [3] was 4.

With `CCCCCCC(C)(C)c1ccc(-c2cc(C)cc(C)c2)c(O)c1` the Ki [1] was 2.7 nM, the Ki [2] was 2.3 nM and the Ratio Ki [3] was 1.

In the case of `Cc1cc(C)cc(-c2ccc(C(C)(C)CCCO)cc2O)c1`, the Ki [1] is reported as 1100 nM, the Ki [2] is reported as 56 nM and the Ratio Ki [3] is reported as 20.

In the case of `CCCCCCC(C)(C)c1ccc(-c2cc(C)ccc2C)c(O)c1`, the Ki [1] is reported as 4.6 nM, the Ki [2] is reported as 6.6 nM and the Ratio Ki [3] is reported as 0.7.

With `CNC(=O)C(C)(C)c1ccc(-c2cc(C)cc(C)c2)c(O)c1` the Ki [1] was > 1000 nM and the Ki [2] was > 1000 nM.

Work on `CCCCCCC1(c2ccc(-c3cc(C)cc(C)c3)c(O)c2)CCCC1` yielded a Ki [1] of 2.9 nM, a Ki [2] of 5.5 nM and a Ratio Ki [3] of 0.5.

With `CCCCCCC(C)(C)c1ccc(-c2cc(C)cc(C)c2)c(CO)c1` the Ki [1] was 360 nM, the Ki [2] was 480 nM and the Ratio Ki [3] was 0.8.

`CCCCCCC(C)(C)c1ccc(-c2ccc(C)c(C)c2)c(O)c1` gave a Ki [1] of 600 nM, a Ki [2] of 830 nM and a Ratio Ki [3] of 0.7.

In the case of `CCCCCCC(C)(C)c1ccc(-c2cc(C)cc(C)c2)c(C(=O)OC)c1`, the Ratio Ki [3] is reported as 2 and 1.

In the case of `CCCCCCC(C)(C)c1ccc(-c2cc(C)cc(C)c2)c(C(N)=O)c1`, the Ki [1] is reported as 370 nM, the Ki [2] is reported as 320 nM and the Ratio Ki [3] is reported as 1.

For `CCCCCCC(C)(C)c1ccc(-c2cc(C)cc(C)c2)c(C(=O)NC(C)C)c1`, the Ki [1] was > 1000 nM and the Ki [2] was > 1000 nM.

With `CCCCCCC(C)(C)c1ccc(-c2cc(C)cc(C)c2)c(OC)c1` the Ki [1] was 320 nM, the Ki [2] was 34 nM and the Ratio Ki [3] was 9.

In the case of `CCCCCCC(C)(C)c1ccc(-c2ccc(OC)c(OC)c2)c(O)c1`, the Ki [1] is reported as 1400 nM, the Ki [2] is reported as 1700 nM and the Ratio Ki [3] is reported as 0.8.

`CCCCCCC(C)(C)c1ccc(-c2ccccc2N)c(O)c1` was tested, and the Ki [1] was 5.2 nM, the Ki [2] was 17 nM and the Ratio Ki [3] was 0.3.

In the case of `CNC(=O)CCC(C)(C)c1ccc(-c2cc(C)cc(C)c2)c(O)c1`, the Ki [1] is reported as 840 nM, the Ki [2] is reported as 140 nM and the Ratio Ki [3] is reported as 6.

With `CCCCCCC(C)(C)c1ccc(-c2cccc(C#N)c2)c(O)c1` the Ki [1] was 27 nM, the Ki [2] was 45 nM and the Ratio Ki [3] was 0.6.

With `CCCCCCC(C)(C)c1ccc(-c2cccc(OC)c2)c(O)c1` the Ki [1] was 91 nM, the Ki [2] was 580 nM and the Ratio Ki [3] was 0.2.

With `CCCCCCC(C)(C)c1ccc(-c2ccccc2OC)c(O)c1` the Ki [1] was 1.7 nM, the Ki [2] was 1 nM and the Ratio Ki [3] was 2.

Work on `CCCCCCC1(c2ccc(-c3cc(C)cc(C)c3)c(O)c2)CC1` yielded a Ki [1] of 13 nM, a Ki [2] of 55 nM and a Ratio Ki [3] of 0.2.

Compound `CCCCCCC(C)(C)c1ccc(-c2cccc(C)c2C)c(O)c1` has a Ki [1] of 49 nM, a Ki [2] of 20 nM and a Ratio Ki [3] of 2.

`CCCCCCC(C)(C)c1ccc(-c2c(C)cccc2C)c(O)c1` showed a Ki [1] of 1.7 nM, a Ki [2] of 18 nM and a Ratio Ki [3] of 0.1.

Compound `CCCCCCC(C)(C)c1ccc(-c2cc(C)cc(C)c2)c(CN2CCOCC2)c1` has a Ki [1] of 3900 nM, a Ki [2] of 660 nM and a Ratio Ki [3] of 6.

Work on `CCCCCCC(C)(C)c1ccc(-c2cc(C)cc(C)c2)c(COC(=O)CN2CCOCC2)c1` yielded a Ki [1] of 370 nM, a Ki [2] of 0.81 nM and a Ratio Ki [3] of 500.

Work on `COC(=O)CCCCC(C)(C)c1ccc(-c2cc(C)cc(C)c2)c(O)c1` yielded a Ki [1] of 24 nM, a Ki [2] of 14 nM and a Ratio Ki [3] of 2.

For `COC(=O)C(C)(C)c1ccc(-c2cc(C)cc(C)c2)c(O)c1`, the Ki [1] was 160 nM, the Ki [2] was 16 nM and the Ratio Ki [3] was 10.

`CCCCCCC(C)(C)c1ccc(-c2cc(C)cc(C)c2)c(CN)c1` showed a Ki [1] of 1500 nM, a Ki [2] of 380 nM and a Ratio Ki [3] of 4.

For `COC(=O)CCC(C)(C)c1ccc(-c2cc(C)cc(C)c2)c(O)c1`, the Ki [1] was 120 nM, the Ki [2] was 5.6 nM and the Ratio Ki [3] was 20.

`Cc1cc(C)cc(-c2ccc(C(C)(C)CCCCCO)cc2O)c1` was tested, and the Ki [1] was 39 nM, the Ki [2] was 3.6 nM and the Ratio Ki [3] was 10.

Compound `Cc1cc(C)cc(-c2ccc(C(C)(C)CO)cc2O)c1` has a Ki [1] of 2200 nM, a Ki [2] of 600 nM and a Ratio Ki [3] of 4.

With `CCCCCCC(C)(C)c1ccc(-c2cc(C)cc(C)c2)cc1` the Ki [1] was > 30000 nM and the Ratio Ki [3] was > 10.

`CCCCCCC1(c2ccc(-c3cc(C)cc(C)c3)c(O)c2)CCCCC1` showed a Ki [1] of 1.8 nM, a Ki [2] of 1.7 nM and a Ratio Ki [3] of 1.
